Experimental data taken from patent US8332028B2, “Protected lithium electrodes for electro-transport drug delivery” (PolyPlus Battery Company, priority 2006, dated 2012).

Assay: in vitro Li delivery through pig skin in a flow-through Li-AgCl cell (protected Li metal foil donor electrode)
Assay type: in vitro ADME
Description: The glass receptor compartment was similar to one described by Phipps et al. (1988) Solid State Ionics 28-30: 1778-1783, for ionophoretic drug delivery experiments. The receptor compartment was filled with RPMI-1640 Medium (Sigma Aldrich). The antibiotic gentamicin sulphate was added to the receptor compartment fluid to inhibit bacterial growth.
The prepared skin was stored in RPMI-1640 medium overnight before the start of the experiment. The skin was placed on the receptor chamber and kept in place and stretched out with an O-ring around the neck of the chamber. The visceral surface of the skin was in contact with the receptor fluid.
A square 1 cm×1 cm silver chloride cathode with a capacity of approximately 40 mAh was introduced into the receptor chamber through a port. A multi-channel peristaltic pump was used to create a flow of the RPMI-1640 medium through receptor compartments of several cells. In our experiments we used a flow rate of 2.1 mL/hr. Periodic sampling of the receptor compartment fluid was performed automatically. The temperature inside the water-jacketed receptor compartment was kept at 37° C. The fluid inside the receptor compartment was stirred with a magnetic stir bar.
The donor chamber was positioned over the skin. It contained Li metal foil and a protective architecture enabling the use of Li in an aqueous environment. The protective architecture comprised a 150 micron thick barrier layer composed of a glass ceramic solid electrolyte plate (AG-01 material from OHARA Corporation with ionic conductivity of ˜10^−4 S/cm) and an anolyte interlayer located between the Li surface and the glass ceramic plate barrier layer. […]
The donor-acceptor chamber assembly was kept in place using a clamp. […] Li content in the fluid samples taken from receptor compartment was analyzed by ICP-MS.
The rate of Li delivery into the receptor compartment was calculated as a product of Li concentration and the flow rate of the receptor fluid.

## [Li] [Li, lithium]
0.2 mA/cm^2 vs 0.1 mA/cm^2, FIG. 9
  Li content in receptor fluid samples, comparison of current densities: significantly larger for the rate of 0.2 mA/cm^2 than for 0.1 mA/cm^2
Before current passing
  initial Li content of the receptor solution: ≤ 6 µg/L
Constant current 0.1 mA/cm^2 (27 hrs) and 0.2 mA/cm^2 (24 hrs), 37° C., RPMI-1640 receptor fluid, ICP-MS, FIG. 9
  Li content in receptor fluid samples over time: gradually increased over time
